Experiments:
[1] = biological target: T1, Peroxisome proliferator-activated receptor alpha (Canis lupus familiaris, UniProt Q95N78); assay: Effective concentration against canine PPAR-alpha in Gal4 transactivation assay
T1 sequence (Q95N78 whole entry): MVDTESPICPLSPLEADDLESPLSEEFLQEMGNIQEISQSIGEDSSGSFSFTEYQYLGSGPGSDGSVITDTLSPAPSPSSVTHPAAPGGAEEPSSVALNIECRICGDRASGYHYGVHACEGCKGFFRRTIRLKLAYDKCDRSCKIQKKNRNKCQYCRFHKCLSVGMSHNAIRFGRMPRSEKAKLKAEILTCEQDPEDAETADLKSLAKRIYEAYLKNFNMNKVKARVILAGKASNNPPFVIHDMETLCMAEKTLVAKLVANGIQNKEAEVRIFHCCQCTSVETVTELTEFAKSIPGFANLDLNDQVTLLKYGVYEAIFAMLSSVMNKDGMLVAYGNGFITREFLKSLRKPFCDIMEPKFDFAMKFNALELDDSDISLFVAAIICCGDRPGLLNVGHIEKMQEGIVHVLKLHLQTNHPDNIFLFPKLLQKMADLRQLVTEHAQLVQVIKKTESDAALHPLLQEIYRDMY

[2] = In vitro binding affinity for PPAR-alpha; parameters: species or system Homo sapiens
[3] = biological target: T2, Peroxisome proliferator-activated receptor delta (Homo sapiens, UniProt Q03181); assay: In vitro binding affinity for PPAR-delta
T2 sequence (Q03181 whole entry): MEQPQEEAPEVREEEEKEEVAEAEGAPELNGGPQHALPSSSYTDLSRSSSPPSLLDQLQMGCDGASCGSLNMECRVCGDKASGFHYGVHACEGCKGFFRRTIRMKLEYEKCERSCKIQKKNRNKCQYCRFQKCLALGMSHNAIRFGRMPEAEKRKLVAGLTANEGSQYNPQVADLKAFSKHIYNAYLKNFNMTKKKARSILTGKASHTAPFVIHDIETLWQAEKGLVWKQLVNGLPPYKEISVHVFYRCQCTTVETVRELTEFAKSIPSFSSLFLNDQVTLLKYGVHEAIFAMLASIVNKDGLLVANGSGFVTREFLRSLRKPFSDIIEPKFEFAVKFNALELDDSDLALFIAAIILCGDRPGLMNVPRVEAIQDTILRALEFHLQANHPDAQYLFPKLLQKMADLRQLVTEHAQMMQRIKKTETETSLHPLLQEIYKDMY

[4] = biological target: T3, Peroxisome proliferator-activated receptor gamma (Homo sapiens, UniProt P37231); assay: In vitro binding affinity for PPAR-gamma
T3 sequence (P37231 whole entry): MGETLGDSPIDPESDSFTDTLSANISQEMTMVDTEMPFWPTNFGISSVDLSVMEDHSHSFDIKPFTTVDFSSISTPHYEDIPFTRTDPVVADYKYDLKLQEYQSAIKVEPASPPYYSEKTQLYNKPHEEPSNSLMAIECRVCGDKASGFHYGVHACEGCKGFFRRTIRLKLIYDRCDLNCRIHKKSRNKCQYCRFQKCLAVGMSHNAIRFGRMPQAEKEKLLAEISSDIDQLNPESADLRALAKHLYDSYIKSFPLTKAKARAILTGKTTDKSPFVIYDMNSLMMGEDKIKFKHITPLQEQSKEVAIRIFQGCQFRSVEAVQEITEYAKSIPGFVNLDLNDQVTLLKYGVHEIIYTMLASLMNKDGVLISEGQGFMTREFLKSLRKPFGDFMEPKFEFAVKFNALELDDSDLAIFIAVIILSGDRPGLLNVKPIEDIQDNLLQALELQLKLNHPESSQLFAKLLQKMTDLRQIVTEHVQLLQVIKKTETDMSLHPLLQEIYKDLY

[5] = tested on: Cricetinae gen. sp.; assay: Effect at an oral dose of 0.1 mg/kg/day for 14 days on serum cholesterol level of hamster; assay type: functional, Cricetulus griseus
[6] = tested on: Cricetinae gen. sp.; assay: Effect at an oral dose of 0.3 mg/kg/day for 14 days on serum cholesterol level of hamster; assay type: functional, Cricetulus griseus
[7] = tested on: Cricetinae gen. sp.; assay: Effect at an oral dose of 0.1 mg/kg/day for 14 days on serum triglyceride level of hamster; assay type: functional, Cricetulus griseus
[8] = tested on: Cricetinae gen. sp.; assay: Effect at an oral dose of 0.3 mg/kg/day for 14 days on serum triglyceride level of hamster; assay type: functional, Cricetulus griseus
[9] = biological target: T3, Peroxisome proliferator-activated receptor gamma; assay: Effective concentration against human PPAR-gamma in Gal4 transactivation assay; 25% response at 3 uM; assay type: functional
[10] = biological target: T4, Peroxisome proliferator-activated receptor alpha (Homo sapiens, UniProt Q07869); assay: Effective concentration against human PPAR-alpha in Gal4 transactivation assay; assay type: functional
T4 sequence (Q07869 whole entry): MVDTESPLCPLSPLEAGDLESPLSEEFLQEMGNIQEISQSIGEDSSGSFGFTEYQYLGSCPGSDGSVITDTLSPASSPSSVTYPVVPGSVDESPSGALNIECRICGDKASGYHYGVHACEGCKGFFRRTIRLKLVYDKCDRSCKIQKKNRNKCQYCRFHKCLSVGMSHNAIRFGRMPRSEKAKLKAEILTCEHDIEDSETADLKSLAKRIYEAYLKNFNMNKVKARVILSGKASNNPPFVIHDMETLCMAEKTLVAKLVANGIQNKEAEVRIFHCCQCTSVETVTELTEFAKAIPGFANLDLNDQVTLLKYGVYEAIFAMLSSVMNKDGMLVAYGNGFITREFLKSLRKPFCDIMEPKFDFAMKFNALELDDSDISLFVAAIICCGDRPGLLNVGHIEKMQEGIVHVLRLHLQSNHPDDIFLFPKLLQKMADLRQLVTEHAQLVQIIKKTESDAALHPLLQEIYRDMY

[11] = biological target: T3, Peroxisome proliferator-activated receptor gamma; assay: Effective concentration against human PPAR-gamma in Gal4 transactivation assay; 56% response at 3 uM; assay type: functional
[12] = biological target: T3, Peroxisome proliferator-activated receptor gamma; assay: Effective concentration against human PPAR-gamma in Gal4 transactivation assay; 4% response at 3 uM; assay type: functional
[13] = biological target: T3, Peroxisome proliferator-activated receptor gamma; assay: Effective concentration against human PPAR-gamma in Gal4 transactivation assay; assay type: functional
[14] = biological target: T3, Peroxisome proliferator-activated receptor gamma; assay: Effective concentration required to produce 50% of maximal reporter activity in cell based transactivation assay using human PPAR-gamma-GAL4 chimeric receptor; 6% response at 3 uM ccompound concentration; assay type: functional
[15] = biological target: T3, Peroxisome proliferator-activated receptor gamma; assay: Effective concentration against human PPAR-gamma in Gal4 transactivation assay; 19% response at 3 uM; assay type: functional
[16] = biological target: T3, Peroxisome proliferator-activated receptor gamma; assay: Effective concentration against human PPAR-gamma in Gal4 transactivation assay; 12% response at 3 uM; assay type: functional
[17] = biological target: T3, Peroxisome proliferator-activated receptor gamma; assay: Effective concentration against human PPAR-gamma in Gal4 transactivation assay; 2% response at 3 uM; assay type: functional
[18] = biological target: T3, Peroxisome proliferator-activated receptor gamma; assay: Effective concentration against human PPAR-gamma in Gal4 transactivation assay; 59% response at 3 uM; assay type: functional
[19] = biological target: T3, Peroxisome proliferator-activated receptor gamma; assay: Effective concentration against human PPAR-gamma in Gal4 transactivation assay; 28% response at 3 uM; assay type: functional
[20] = biological target: T3, Peroxisome proliferator-activated receptor gamma; assay: Effective concentration against human PPAR-gamma in Gal4 transactivation assay; 11% response at 3 uM; assay type: functional
[21] = tested on: Canis familiaris; assay: Effect on cholesterol lowering in male Beagle dog at an oral dose of 4 mkd for 3 days; assay type: functional, Canis lupus familiaris
[22] = tested on: Canis familiaris; assay: Effect on cholesterol lowering in male Beagle dog at an oral dose of 4 mkd for 7 days; assay type: functional, Canis lupus familiaris
[23] = tested on: Canis familiaris; assay: Effect on cholesterol lowering in male Beagle dog at an oral dose of 4 mkd for 15 days; assay type: functional, Canis lupus familiaris
[24] = tested on: Canis familiaris; assay: Effect on cholesterol lowering in male Beagle dog at an oral dose of 4 mkd for 10 days; assay type: functional, Canis lupus familiaris
[25] = tested on: Canis familiaris; assay: Effect on cholesterol lowering in male Beagle dog at an oral dose of 50 mkd for 3 days; assay type: functional, Canis lupus familiaris
[26] = tested on: Canis familiaris; assay: Effect on cholesterol lowering in male Beagle dog at an oral dose of 50 mkd for 7 days; assay type: functional, Canis lupus familiaris
[27] = tested on: Canis familiaris; assay: Effect on cholesterol lowering in male Beagle dog at an oral dose of 50 mkd for 10 days; assay type: functional, Canis lupus familiaris
[28] = tested on: Canis familiaris; assay: Effect on cholesterol lowering in male Beagle dog at an oral dose of 50 mkd for 15 days; assay type: functional, Canis lupus familiaris
[29] = tested on: Cricetinae gen. sp.; assay: Effect at an oral dose of 100 mg/kg/day for 14 days on serum cholesterol level of hamster; assay type: functional, Cricetulus griseus
[30] = tested on: Cricetinae gen. sp.; assay: Effect at an oral dose of 100 mg/kg/day for 14 days on serum triglyceride level of hamster; assay type: functional, Cricetulus griseus
[31] = biological target: T3, Peroxisome proliferator-activated receptor gamma; assay: Effective concentration against human PPAR-gamma in Gal4 transactivation assay; 30% response at 3 uM; assay type: functional

EC50 [1] [µM]	IC50 [2] [µM]	IC50 [3] [µM]	IC50 [4] [µM]	EC50 [10] [µM]	SMILES	also measured
< 0.001	0.003	> 15	> 15	–	CC(C)[C@@]1(C(=O)O)Cc2cc(OCCCOc3ccc(OC(F)(F)F)cc3Cl)ccc2O1	TC [5]: -43%; TC [6]: -54%; TG [7]: -52%; TG [8]: -52%; EC50 [9]: > 3 µM
0.02	0.017	> 15	4.33	0.009	CCC1(C(=O)O)Cc2cc(OCCCOc3ccc(C(C)(C)C)cc3Cl)ccc2O1 (racemic)	EC50 [11]: > 3 µM
0.01	0.264	> 50	> 50	0.057	CC(C)[C@@]1(C(=O)O)Cc2cc(OCCOc3ccc(OC(F)(F)F)cc3Cl)ccc2O1	EC50 [12]: > 3 µM
–	1.39	> 50	> 50	–	CC(C)(C)[C@@]1(C(=O)O)Cc2cc(OCCOc3ccc(OC(F)(F)F)cc3Cl)ccc2O1	–
0.042	0.106	> 15	> 15	0.138	CC1(C(=O)O)Cc2cc(OCCCOc3ccc(OCC(F)(F)F)cc3Cl)ccc2O1 (racemic)	EC50 [13]: > 3 µM
0.002	0.007	> 50	> 15	–	CC(C)(C)C1(C(=O)O)Cc2cc(OCCCOc3ccc(CC(F)(F)F)cc3Cl)ccc2O1 (racemic)	EC50 [14]: > 3 µM
0.008	0.032	> 15	> 15	0.034	CCC1(C(=O)O)Cc2cc(OCCCOc3ccc(OCC(F)(F)F)cc3Cl)ccc2O1 (racemic)	EC50 [15]: > 3 µM
0.002	0.004	> 50	5.6	–	CCC1(C(=O)O)Cc2cc(OCCCOc3ccc(CC(C)(C)C)cc3Cl)ccc2O1 (racemic)	EC50 [16]: > 3 µM
< 0.001	0.022	1.19	3.22	–	CCC1(C(=O)O)Cc2ccc(OCCCOc3ccc(OC(F)(F)F)cc3Cl)cc2O1 (stereo not drawn)	–
0.002	0.021	> 15	> 15	–	CC[C@@]1(C(=O)O)Cc2cc(OCCCOc3ccc(CCC(F)(F)F)cc3Cl)ccc2O1	–
1.35	0.786	> 15	> 15	–	O=C(O)C1Cc2cc(OCCCOc3ccc(OCC(F)(F)F)cc3Cl)ccc2O1 (racemic)	–
–	0.275	> 50	> 15	–	O=C(O)C1(Cc2ccccc2)Cc2cc(OCCCOc3ccc(OC(F)(F)F)cc3Cl)ccc2O1 (racemic)	–
< 0.001	0.011	5.23	3.11	0.008	CCCc1cc(SC(F)(F)F)ccc1OCCCOc1ccc2c(c1)CC(CC)(C(=O)O)O2 (racemic)	EC50 [18]: > 3 µM
< 0.001	0.004	> 15	> 15	0.002	CC[C@@]1(C(=O)O)Cc2cc(OCCCOc3ccc(CC(F)(F)F)cc3Cl)ccc2O1	TC [5]: -33%; TC [6]: -37%; TG [7]: -13%; TG [8]: -26%; EC50 [19]: > 3 µM
0.13	0.231	> 15	> 50	–	CC[C@@]1(C(=O)O)Cc2cc(OCCCOc3ccc(OCC(F)(F)F)cc3)ccc2O1	–
0.042	0.162	> 15	> 15	0.041	CC(C)[C@@]1(C(=O)O)Cc2cc(OCCCOc3cc(C(F)(F)F)ccc3Cl)ccc2O1	EC50 [20]: > 3 µM
–	1.28	> 15	> 50	–	CC(C)[C@]1(C(=O)O)Cc2cc(OCCCOc3ccc(OC(F)(F)F)cc3Cl)ccc2O1	–
–	–	–	–	–	CCC(C)(C)C(=O)O[C@H]1C[C@@H](C)C=C2C=C[C@H](C)[C@H](CC[C@@H]3C[C@@H](O)CC(=O)O3)[C@H]21 [SIMVASTATIN]	TC [21]: -7.8%; TC [22]: -13.3%; TC [23]: -17.1%; TC [24]: -9.9%
–	–	–	–	–	CC(C)OC(=O)C(C)(C)Oc1ccc(C(=O)c2ccc(Cl)cc2)cc1 [FENOFIBRATE]	TC [25]: -2.2%; TC [26]: -5.5%; TC [27]: -5.9%; TC [28]: -12.3%; TC [29]: -28.55%; TG [30]: -24.08%
–	2.23	> 50	> 15	–	CC[C@]1(C(=O)O)Cc2cc(OCCCOc3ccc(OC(F)(F)F)cc3Cl)ccc2O1	–
< 0.001	0.003	> 15	6.77	0.003	CCC1(C(=O)O)Cc2cc(OCCCOc3ccc(SC(F)(F)F)cc3Cl)ccc2O1 (racemic)	EC50 [31]: > 3 µM
–	0.042	0.834	> 15	–	CCC1(C(=O)O)Cc2cc(OCCCOc3ccc(C(F)(F)F)cc3Cl)ccc2O1 (racemic)	–

SMILES	EC50 [1] [µM]	IC50 [2] [µM]	IC50 [3] [µM]	IC50 [4] [µM]	EC50 [10] [µM]	also measured
O=C(O)C1(C(F)(F)F)Cc2cc(OCCCOc3ccc(CC(F)(F)F)cc3Cl)ccc2O1 (racemic)	0.026	0.009	0.399	> 15	0.037	EC50 [17]: > 3 µM

— ChEMBL document CHEMBL1144356 (J Med Chem, 2005)
